Reference: patent US10954262B2, “Tunicamycin analogues” (Oxford University Innovation Limited, priority 2017, dated 2021)
≈ marks a conversion by molar mass, not a printed value. Where a name gives a salt, the structure may show the parent alone. Read-outs that look alike come from different tables or passages of the source.

What was measured:
[1] = test system: Bacillus cereus (ATCC11778); assay: Kirby-Bauer disc diffusion susceptibility test; assay type: cell-based; conditions: for Antibacterial activity in disc diffusion test: 5 μg per disc; for zone of inhibition at 5 µg/disc: ATCC11778, 6 mm disc impregnated with 5 μg, 20 hours, 35° C., read-out: Diffusion distance (zone diameter)
Procedure: (§1) Bioactivity was assessed using the Kirby-Bauer disc diffusion susceptibility test. Oxoid Blank Discs were impregnated with the desired test substance. A 0.5 McFarland standard inoculum was prepared by adding 3-5 single colonies to 10 mL MH broth in a 15 mL falcon tube and standardised to 0.5 McFarland standard. The inoculum was used within 10 minutes. A sterile cotton swab was dipped in the inoculum, gently pressed against the side of the tube to remove excess liquid, and generously streaked on MH agar plate to fully cover the plate. The impregnated disc was carefully placed on the agar. The plate was incubated at 35° C. for 20 hrs overnight. A digital calliper was used to measure the zone diameter. The recorded zone diameter is an average of three zone diameters measured of one zone.
(§2) Each 6 mm disc was impregnated with 5 μg of the relevant compound (TM, A, B, C, D, or any of E1 to E7), and the diffusion zone recorded after 20 hours.
(§3) Results are shown for E2 to E7 and TM. Values quoted are zone diameters, with larger numbers indicating higher antibacterial activity.

[2] = test system: Bacillus subtilis (EC1524); assay: Kirby-Bauer disc diffusion susceptibility test; assay type: cell-based; conditions: for Antibacterial activity in disc diffusion test: 5 μg per disc; for zone of inhibition at 5 µg/disc: 6 mm disc impregnated with 5 μg, 20 hours, 35° C., read-out: Diffusion distance (zone diameter)
Procedure: as §1, §2, §3

[3] = test system: Bacillus cereus (ATCC11778); assay: microbe, parasite or virus in culture; assay type: cell-based; conditions: for MIC: MH broth, 35° C., 20-24 hours; for IC50: OD600 dose-response curve; for MBC: additional 20 hours on MH agar
HepG2 liver cells = assay: Cell proliferation assay / cell morphology (cytotoxicity); assay type: cell-based, human; conditions: for Minimum lethal dose: HepG2; for viable cells: human
Procedure: (§4) Underlying scaffolds A, B, C and D and lipid-varied analogues E1 to E7 were assayed for cytotoxicity towards human liver cells (Hep2G) and human kidney cells (HEK293).
(§5) Mammalian cells were cultured in DMEM medium supplemented with 10% heat inactivated fetal bovine serum (FBS, v/v). The cultures were maintained in a humidified incubator at 37° C. in 5% CO2/95% air. FBS was reduced to 2% for the cell proliferation assay.
(§6) In sterile 96-well plate, each well was seeded with 1×10^5 cells. The cells were then grown confluent overnight in 100 μL DMEM with 10% FBS. The medium was replenished with DMEM with 2% FBS and added vehicle control or test substance the next day. For test substance in methanol, stock was added to 25 μL of DMEM with 2% FBS or PBS and placed in a laminar flow hood to let the methanol evaporate (about 1-3 hrs). Once the methanol has evaporated, DMEM with 2% FBS was added to final volume of 100 μL of desired test concentration. […] Cells were grown for additional 24 hrs. The cell viability was determined by using a Promega CellTiter 96 AQueous One Solution Cell Proliferation Assay System following the manufacturer's protocol.

HEK293 kidney cells = assay: as above; assay type: cell-based, human; conditions: for Minimum lethal dose: HEK293; for viable cells: human
Procedure: as §4, §5, §6

[4] = test system: Pseudomonas aeruginosa (ATCC27853); assay: microbe, parasite or virus in culture; assay type: cell-based
[5] = test system: Bacillus subtilis (EC1524); assay: microbe, parasite or virus in culture; assay type: cell-based; conditions: for MIC: MH broth, 35° C., 20-24 hours; for IC50: OD600 dose-response curve; for MBC: additional 20 hours on MH agar
[6] = test system: Pseudomonas aeruginosa (ATCC27853); assay: Kirby-Bauer disc diffusion susceptibility test; assay type: cell-based; conditions: 6 mm disc, 5 μg
Procedure: as §1, §2
Underlying scaffolds A, B, C and D and lipid-varied analogues E1 to E7 were assayed for potency against Pseudomonas aeruginosa (ATCC27853), according to the methods of Example 2. Results of the Kirby-Bauer disc diffusion susceptibility test conducted using Pseudomonas aeruginosa (ATCC27853) as a test organism are shown in FIG. 2 and in Table 3. MIC, MBC and IC50 values were also obtained as in Example 2.

[7] = test system: Mycobacterium tuberculosis H37RV; assay: MIC in GAST/Fe and 7H9/ADC/Tw growth medium at 1 and 2 weeks; assay type: cell-based; conditions: for MIC: Mycobacterium tuberculosis, H37RV

SMILES | Antibacterial activity in disc diffusion test [1] | Antibacterial activity in disc diffusion test [2] | MIC [3] | IC50 [3] | MBC [3] | Minimum lethal dose (HepG2 liver cells) | viable cells (HepG2 liver cells) | Minimum lethal dose (HEK293 kidney cells) | viable cells (HEK293 kidney cells) | IC50 [4] | MBC [4] | MIC [4] | MIC [5] | IC50 [5] | MBC [5] | Diffusion distance [6] | zone of inhibition at 5 µg/disc [2] | zone of inhibition at 5 µg/disc [1] | further results
CC(=O)N[C@H]1C(O)O[C@H](C[C@@H](O)[C@@H]2O[C@@H](n3ccc(=O)[nH]c3=O)[C@H](O)[C@@H]2O)C(O)C1O (stereo partly shown) [A, N-acetyl-tunicamyl-uracil] | completely inactive | completely inactive |  |  |  |  |  |  |  |  |  |  |  |  |  |  |  |  | 
CC(C)(C)OC(=O)NC1C(O)[C@H](O)C(CO)O[C@@H]1OC1O[C@H](C[C@@H](O)[C@@H]2O[C@@H](n3ccc(=O)[nH]c3=O)[C@H](O)[C@@H]2O)C(O)C(O)[C@H]1NC(=O)OC(C)(C)C (stereo partly drawn) [B, 10′,2″-Di-N-Boc-α-D-glucosamine-(1″-11′)-tunicamyl Uracil] | completely inactive | completely inactive |  |  |  |  |  |  |  |  |  |  |  |  |  |  |  |  | 
CC(=O)NC1C(O)[C@H](O)C(CO)O[C@@H]1OC1O[C@H](C[C@@H](O)[C@@H]2O[C@@H](n3ccc(=O)[nH]c3=O)[C@H](O)[C@@H]2O)C(O)C(O)[C@H]1NC(C)=O (stereo partly drawn) [C, α-D-N-acetylglucosamine-(1″-11′)-N-acetyl Tunicamyl Uracil] | completely inactive | completely inactive |  |  |  |  |  |  |  |  |  |  |  |  |  |  |  |  | 
CC(C)=CCC[C@H](C)CC(=O)NC1C(OC2OC(C[C@@H](O)[C@H]3O[C@@H](n4ccc(=O)[nH]c4=O)[C@H](O)[C@@H]3O)C(O)C(O)[C@H]2NC(=O)C[C@@H](C)CCC=C(C)C)OC(CO)[C@@H](O)C1O (stereo partly shown) [Compound E1, Di-N-citronoyl-tunicamycin] |  |  | 100 µg/mL (≈ 115 µM) | 6.29 µg/mL (≈ 7.22 µM) | > 200 µg/mL | >400 µg/mL | > 75% | >400 µg/mL | > 75% | 70.3 µg/mL (≈ 80.7 µM) | > 400 µg/mL | 200 µg/mL (≈ 230 µM) | 6.25 µg/mL (≈ 7.18 µM) | 0.415 µg/mL (≈ 0.476 µM) | > 100 µg/mL |  |  |  | 
CCCCCCC(=O)NC1C(OC2OC(C[C@@H](O)[C@H]3O[C@@H](n4ccc(=O)[nH]c4=O)[C@H](O)[C@@H]3O)C(O)C(O)[C@H]2NC(=O)CCCCCC)OC(CO)[C@@H](O)C1O (stereo partly shown) [Compound E2, Di-N-heptanoyl tunicamycin] |  |  | 100 µg/mL (≈ 126 µM) | 13.3 µg/mL (≈ 16.9 µM) | > 200 µg/mL | >400 µg/mL | > 75% | >400 µg/mL | > 75% | 62.4 µg/mL (≈ 79 µM) | > 400 µg/mL | 100 µg/mL (≈ 126 µM) | 6.25 µg/mL (≈ 7.9 µM) | 3.39 µg/mL (≈ 4.29 µM) | > 50 µg/mL | 7 mm | 10 mm |  | 
CCCCCCCCC(=O)NC1C(OC2OC(C[C@@H](O)[C@H]3O[C@@H](n4ccc(=O)[nH]c4=O)[C@H](O)[C@@H]3O)C(O)C(O)[C@H]2NC(=O)CCCCCCCC)OC(CO)[C@@H](O)C1O (stereo partly shown) [Compound E4, Di-N-nonanoyl-tunicamycin] |  |  | 0.78 µg/mL (≈ 0.921 µM) | 0.0723 µg/mL (≈ 0.0854 µM) | 25 µg/mL (≈ 29.5 µM) | >400 µg/mL | > 75% | >400 µg/mL | > 75% | 55 µg/mL (≈ 64.9 µM) | 400 µg/mL (≈ 472 µM) | 100 µg/mL (≈ 118 µM) | 0.024 µg/mL (≈ 0.0283 µM) | 0.0146 µg/mL (≈ 0.0172 µM) | > 0.06 µg/mL | 13 mm | 16 mm | 13 mm | MIC lower than naturally occurring tunicamycin TM ([7]; in some cases): approximately 5 fold
CCCCCCCCCC(=O)NC1C(OC2OC(C[C@@H](O)[C@H]3O[C@@H](n4ccc(=O)[nH]c4=O)[C@H](O)[C@@H]3O)C(O)C(O)[C@H]2NC(=O)CCCCCCCCC)OC(CO)[C@@H](O)C1O (stereo partly shown) [Compound E5, Di-N-decanoyl-tunicamycin] |  |  | 0.39 µg/mL (≈ 0.446 µM) | 0.0461 µg/mL (≈ 0.0527 µM) | 12.5 µg/mL (≈ 14.3 µM) | >400 µg/mL | > 75% | >400 µg/mL | > 75% | 53.5 µg/mL (≈ 61.1 µM) | 400 µg/mL (≈ 457 µM) | 100 µg/mL (≈ 114 µM) | 0.39 µg/mL (≈ 0.446 µM) | 0.114 µg/mL (≈ 0.13 µM) | > 0.39 µg/mL | 12 mm | 10 mm | 9 mm | 
CCCCCCCCCCC(=O)NC1C(OC2OC(C[C@@H](O)[C@H]3O[C@@H](n4ccc(=O)[nH]c4=O)[C@H](O)[C@@H]3O)C(O)C(O)[C@H]2NC(=O)CCCCCCCCCC)OC(CO)[C@@H](O)C1O (stereo partly shown) [Compound E6, Di-N-undecanoyl-tunicamycin] |  |  | 0.78 µg/mL (≈ 0.864 µM) | 0.0878 µg/mL (≈ 0.0972 µM) | 25 µg/mL (≈ 27.7 µM) | >400 µg/mL | > 75% | >400 µg/mL | > 75% | 63.2 µg/mL (≈ 69.9 µM) | 400 µg/mL (≈ 443 µM) | 100 µg/mL (≈ 111 µM) | 1.56 µg/mL (≈ 1.73 µM) | 0.852 µg/mL (≈ 0.943 µM) | > 6.25 µg/mL | 12 mm | 6 mm | 7 mm | 1-week MIC [7]: 2.8 µg/mL; 2-week MIC [7]: 2.8 µg/mL; MIC ([7]; 168 h, read-out: 1-week MIC): 5.6 µg/mL (≈ 6.2 µM); MIC ([7]; 336 h, read-out: 2-week MIC): 5.6 µg/mL (≈ 6.2 µM)
CCCCCCCCCCCC(=O)NC1C(OC2OC(C[C@@H](O)[C@H]3O[C@@H](n4ccc(=O)[nH]c4=O)[C@H](O)[C@@H]3O)C(O)C(O)[C@H]2NC(=O)CCCCCCCCCCC)OC(CO)[C@@H](O)C1O (stereo partly shown) [Compound E7, Di-N-dodecanoyl-tunicamycin] |  |  | 50 µg/mL (≈ 53.7 µM) | 1.4 µg/mL (≈ 1.51 µM) | > 200 µg/mL | >400 µg/mL | > 75% | >400 µg/mL | > 75% | 81.9 µg/mL (≈ 88 µM) | > 400 µg/mL | 200 µg/mL (≈ 215 µM) | 100 µg/mL (≈ 107 µM) | 58.9 µg/mL (≈ 63.2 µM) | > 200 µg/mL | 8 mm |  |  | 
NC1C(O)[C@H](O)C(CO)O[C@@H]1OC1O[C@H](C[C@@H](O)[C@@H]2O[C@@H](n3ccc(=O)[nH]c3=O)[C@H](O)[C@@H]2O)C(O)C(O)[C@H]1N (stereo partly drawn) [D, α-D-glucosamine-(1″-11′)-tunicamyl Uracil Dihydrochloride] | completely inactive | completely inactive |  |  |  |  |  |  |  |  |  |  |  |  |  |  |  |  | 
